pEC50: −log10 of the molar value. Like-named read-outs stand apart in the source and are kept apart here.
Assays:
THP-1 cells = test: Measurement of IL-1β production, hTRF protocol (second alternative procedure), THP-1 cells; format: cell-based, human; conditions: Homo sapiens, THP-1, IL-1β production, read-out: NLRP3 hILIB EC50
How it was run: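 THP-1 cells differentiated overnight with 50 ng/ml PMA, then plated at 50,000 cells/well in RPMI with 2% FBS onto serial compound dilutions (top final concentration 10 μM) for 2 hours at 37° C. Supernatant IL-1β measured by hTRF (antibodies at 1:40, overnight at 4° C), read at 665/615 nm against a standard curve.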

TLR8 = molecular target: T1, TLR8 (Homo sapiens, UniProt Q9NR97); test: In vitro human TLR8 binding reporter assay (HEK-Blue, NF-kB/AP1-inducible SEAP); format: cell-based; conditions: read-out: TLR8 Agonist EC50
T1 construct: human HEK-Blue cells co-expressing a TLR7 or TLR8 gene
T1 sequence (Q9NR97 27-1041): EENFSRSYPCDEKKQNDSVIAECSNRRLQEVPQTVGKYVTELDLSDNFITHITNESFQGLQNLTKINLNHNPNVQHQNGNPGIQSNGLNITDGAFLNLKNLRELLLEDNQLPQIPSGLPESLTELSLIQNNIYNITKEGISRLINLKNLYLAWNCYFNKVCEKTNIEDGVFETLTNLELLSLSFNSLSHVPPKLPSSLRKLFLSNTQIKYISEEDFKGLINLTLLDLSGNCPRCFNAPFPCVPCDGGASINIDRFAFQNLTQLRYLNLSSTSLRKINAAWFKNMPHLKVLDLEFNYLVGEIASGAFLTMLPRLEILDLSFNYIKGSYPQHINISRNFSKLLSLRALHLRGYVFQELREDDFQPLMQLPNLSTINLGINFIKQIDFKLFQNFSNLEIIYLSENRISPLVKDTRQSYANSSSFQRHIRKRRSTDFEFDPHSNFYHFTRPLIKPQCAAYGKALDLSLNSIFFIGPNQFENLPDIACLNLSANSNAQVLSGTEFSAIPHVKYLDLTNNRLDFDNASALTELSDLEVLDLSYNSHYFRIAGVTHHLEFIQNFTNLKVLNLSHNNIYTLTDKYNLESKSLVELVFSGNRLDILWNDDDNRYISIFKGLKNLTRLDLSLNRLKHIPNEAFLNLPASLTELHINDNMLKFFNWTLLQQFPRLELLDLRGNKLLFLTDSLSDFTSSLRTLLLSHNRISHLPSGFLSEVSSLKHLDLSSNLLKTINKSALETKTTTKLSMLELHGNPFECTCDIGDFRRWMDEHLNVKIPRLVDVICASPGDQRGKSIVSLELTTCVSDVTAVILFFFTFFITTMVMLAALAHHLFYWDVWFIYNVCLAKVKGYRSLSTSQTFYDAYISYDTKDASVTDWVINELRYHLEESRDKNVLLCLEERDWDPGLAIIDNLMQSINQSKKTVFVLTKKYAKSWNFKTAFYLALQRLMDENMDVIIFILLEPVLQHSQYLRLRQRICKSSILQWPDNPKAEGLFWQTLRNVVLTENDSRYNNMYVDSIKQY
How it was run: (§1)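 EC50s come from NF-kB/AP1-driven SEAP secretion in HEK-Blue cells expressing TLR7 or TLR8, measured with Quanti-Blue after an 18 h compound incubation. Maximal response is defined by a 50 μM reference standard.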

TLR7 = molecular target: T2, TLR7 (Homo sapiens, UniProt Q9NYK1); test: In vitro human TLR7 binding reporter assay (HEK-Blue, NF-kB/AP1-inducible SEAP); format: cell-based; conditions: read-out: TLR7 Agonist EC50
T2 construct: human HEK-Blue cells co-expressing a TLR7 or TLR8 gene
T2 sequence (Q9NYK1 27-1049): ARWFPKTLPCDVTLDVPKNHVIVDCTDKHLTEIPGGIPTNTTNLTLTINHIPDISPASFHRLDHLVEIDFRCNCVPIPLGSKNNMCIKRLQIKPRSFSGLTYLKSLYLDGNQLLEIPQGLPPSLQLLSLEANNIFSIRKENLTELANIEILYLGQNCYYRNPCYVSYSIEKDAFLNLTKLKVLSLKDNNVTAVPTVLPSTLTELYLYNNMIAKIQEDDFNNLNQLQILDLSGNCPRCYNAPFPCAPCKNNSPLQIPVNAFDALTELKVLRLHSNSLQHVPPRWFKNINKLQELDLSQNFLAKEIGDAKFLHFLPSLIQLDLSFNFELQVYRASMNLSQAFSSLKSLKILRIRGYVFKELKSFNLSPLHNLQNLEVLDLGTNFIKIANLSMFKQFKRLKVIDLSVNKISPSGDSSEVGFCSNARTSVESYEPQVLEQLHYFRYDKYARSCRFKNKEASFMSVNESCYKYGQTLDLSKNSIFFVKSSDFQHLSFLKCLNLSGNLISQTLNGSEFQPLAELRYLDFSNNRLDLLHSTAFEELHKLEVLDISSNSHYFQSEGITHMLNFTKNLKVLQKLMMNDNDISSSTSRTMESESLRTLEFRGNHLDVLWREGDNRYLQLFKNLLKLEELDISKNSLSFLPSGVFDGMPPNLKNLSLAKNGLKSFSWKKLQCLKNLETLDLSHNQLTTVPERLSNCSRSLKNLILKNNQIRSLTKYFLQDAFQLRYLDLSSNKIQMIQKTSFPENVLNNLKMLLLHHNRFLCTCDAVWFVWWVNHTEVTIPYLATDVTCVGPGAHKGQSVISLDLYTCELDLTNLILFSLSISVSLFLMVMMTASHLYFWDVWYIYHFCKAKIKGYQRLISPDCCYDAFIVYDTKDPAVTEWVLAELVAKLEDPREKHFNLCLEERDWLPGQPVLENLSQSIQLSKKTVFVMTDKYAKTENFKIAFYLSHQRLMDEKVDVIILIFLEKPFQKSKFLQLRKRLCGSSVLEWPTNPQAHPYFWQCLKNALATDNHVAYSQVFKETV
How it was run: as §1

Structure (SMILES)	pEC50 (THP-1 cells; human)	pEC50 (TLR8; activity range class)	pEC50 (TLR7; activity range class)	pEC50 (THP-1 cells; human cells)	pEC50 (TLR8; activity range)	pEC50 (TLR7; activity range)
N#Cc1ccc(C(=O)NCCn2cc3c(n2)c(N)nc2cc(-c4cc[nH]n4)ccc23)nc1 [Example 64]	6.32	< 4.00	< 4.00	–	–	–
CCC(CO)Cn1cc2c(N)nc3cc(-c4cc[nH]n4)ccc3c2n1 (stereo not drawn) [Example 356]	6.08	< 4.00	< 4.00	–	–	–
Nc1nc2cc(-c3cc[nH]n3)ccc2c2c1cnn2CCN1CC(F)(F)C1 [Example 430]	–	–	–	5.72	< 4.00	< 4.00
Cc1cc(C(=O)NCCn2cc3c(n2)c(N)nc2cc(-c4cc[nH]n4)ccc23)nn1C [Example 45]	5.85	< 4.00	< 4.00	–	–	–
Nc1nc2cc(-c3cc[nH]n3)ccc2c2nn(CCC(=O)NCc3ccccn3)cc12 [Example 507]	–	–	–	4.76	< 4.00	< 4.00
Nc1nc2cc(-c3cc[nH]n3)ccc2c2cn(CCNC(=O)c3ncccc3Cl)nc12 [Example 92]	5.97	< 4.00	< 4.00	–	–	–
CN1CCOC(Cn2ncc3c(N)nc4cc(-c5cc[nH]n5)ccc4c32)C1 (stereo not drawn) [Example 231]	5.92	< 4.00	< 4.00	–	–	–
Nc1nc2cc(-c3cc[nH]n3)ccc2c2cn(CCNC(=O)c3ncccn3)nc12 [Example 70]	5.74	< 4.00	< 4.00	–	–	–
Nc1nc2cc(-c3cc[nH]n3)ccc2c2nn(CCN3CCCC3=O)cc12 [Example 383]	5.86	< 4.00	< 4.00	–	–	–
Nc1nc2cc(-c3cc[nH]n3)ccc2c2cn(CC(=O)Nc3ccccc3F)nc12 [Example 164]	6.60	< 4.00	< 4.00	–	–	–
Cc1cc(Nc2cccc(C(=O)NCCn3cc4c(n3)c(N)nc3cc(-c5cc[nH]n5)ccc34)n2)n(C)n1 [Example 78]	5.33	< 4.00	< 4.00	–	–	–
CN(C(=O)Cn1cc2c(n1)c(N)nc1cc(-c3cc[nH]n3)ccc12)[C@H]1CCOC1 [Example 549]	–	–	–	5.40	< 4.00	< 4.00
Nc1nc2cc(-c3cc[nH]n3)ccc2c2nn(C3CCC(O)C3)cc12 (single isomer, unassigned) [Example 341]	6.37	< 4.00	< 4.00	–	–	–
CC(CC(=O)NCCO)n1cc2c(N)nc3cc(-c4cc[nH]n4)ccc3c2n1 (stereo not drawn) [Example 620]	–	–	–	4.54	< 4.00	< 4.00
COCCNCc1cc2c(N)nc3cc(-c4cc[nH]n4)ccc3c2[nH]1 [Example 419]	–	–	–	6.46	< 4.00	< 4.00
COC(=O)NCc1nc2c(N)nc3cc(-c4ccn[nH]4)ccc3c2s1 [Example 134, methyl N-[[4-amino-7-(1H-pyrazol-5-yl)-[1,3]thiazolo[4,5-c]quinolin-2-yl]methyl]carbamate]	6.43	< 4.00	4.00 to 4.70	–	–	–
COc1ccc(CNCCn2cc3c(n2)c(N)nc2cc(-c4cc[nH]n4)ccc23)cc1 [Example 111]	5.68	< 4.00	4.00 to 4.70	–	–	–
Nc1nc2cc(-c3cc[nH]n3)ccc2c2[nH]c(CNC(=O)c3ccc(F)cn3)cc12 [Example 418]	–	–	–	5.44	< 4.00	< 4.00
CC(C(=O)NCc1ccccn1)n1cc2c(N)nc3cc(-c4ccn[nH]4)ccc3c2n1 (stereo not drawn) [Example 563]	–	–	–	5.04	< 4.00	< 4.00
Nc1nc2cc(-c3cccs3)ccc2c2cn(CCNC(=O)c3ccccn3)nc12 [Example 131]	6.21	< 4.00	< 4.00	–	–	–
Nc1nc2cc(-c3cc[nH]n3)ccc2c2[nH]c(CN3C[C@H]4CC[C@@H](C3)O4)cc12 [Example 473]	–	–	–	6.31	< 4.00	< 4.00
Nc1nc2cc(-c3cc[nH]n3)ccc2c2cn(CCC(=O)Nc3ccccc3)nc12 [Example 23]	5.86	< 4.00	< 4.00	–	–	–
Cc1nc(C(=O)NCCn2cc3c(N)nc4cc(-c5cc[nH]n5)ccc4c3n2)co1 [Example 198]	6.96	< 4.00	< 4.00	–	–	–
CC[C@@H](O)Cn1cc2c(N)nc3cc(-c4cc[nH]n4)ccc3c2n1 [Example 368]	6.28	< 4.00	< 4.00	–	–	–
CC(C)(Cn1cc2c(N)nc3cc(-c4ccn[nH]4)ccc3c2n1)NC(=O)C1CCCO1 (stereo not drawn) [Example 262]	6.12	< 4.00	< 4.00	–	–	–
COCCS(=O)(=O)NCCCn1cc2c(N)nc3cc(-c4ccn[nH]4)ccc3c2n1 [Example 585]	–	–	–	5.41	< 4.00	< 4.00
Nc1nc2cc(-n3cccn3)ccc2c2nn(CC3COCCN3)cc12 (stereo not drawn) [Example 433]	–	–	–	5.34	< 4.00	< 4.00
Nc1nc2cc(-c3cc[nH]n3)ccc2c2cn(CCNC(=O)c3ccc(F)cn3)nc12 [Example 31, N-{2-[4-amino-7-(1H-pyrazol-3-yl)-2H-pyrazolo[3,4-c]quinolin-2-yl]ethyl}-5-fluoropyridine-2-carboxamide]	6.82	4.70 to 6.00	4.00 to 4.70	–	–	–

Source: US12037344B2, “NLRP3 modulators” (INNATE TUMOR IMMUNITY, INC., priority 2018, dated 2024)
